Peptide text beside a SMILES is read from it.
Assays:
[1] = tested on: human lymphocyte cultures; details: cited from earlier work
Excerpt: Peptides play an important role in immunology, often through being epitopes for adaptive immune systems. Besides, they take part in mobilizing immune cells. […] Unfortunately, application of synthetic peptides can lead to unwanted immune activation or allergies and immunogenicity or immune-related adverse effects can limit the effectiveness of peptide-based therapies [[35],[36],[37 ...

[2] = tested on: ASCs from donor 6; test: RNA sequencing with ingenuity pathway analysis (IPA); type: cell-based, human; details: ASCs donor 6, 0.1 µg/mL IM
Method: (§1) Cell stimulation was performed as previously described. Primary fibroblasts after the third passage and ASCs after the second passage were cultured in appropriate DMEM medium supplemented with 10% FBS for 24 h. Then, the medium was changed for DMEM with 5% FBS and 24-h incubation was performed. After another medium change for serum-free, cells were stimulated with IM peptide (0.1 µg/mL) for 48 h. Cell cultures deprived of FBS for 48 h were used as a control. After stimulation, the cells were trypsinized, collected, and centrifuged, and the pellet was kept frozen (−80 °C) for transcriptome analysis and transcript level analysis.
For three plastic surgery donors (donor 6, donor 11, and donor 12) ASCs (3–4.5 × 10^5 cells) after passage P2, namely cultures stimulated for 48 h with 0.1 µg/mL IM, or control cultured with FBS-deprived medium, were trypsinized, washed, and snap frozen for transcriptome analysis (see Supplementary Table S5 for clinical information). The pellets were stored at −80 °C prior to RNA isolation. RNA was isolated using a miRNeasy Mini Kit (Qiagen, Hilden, Germany) with two modifications of the original protocol: (i) chloroform was substituted with 1-bromo-3-chloropropane to prevent foaming and emulsification, and (ii) the elution was done with 40 µl of water followed by another elution with the entire volume of the original eluate. The quality and concentration of RNA was assessed using a Bioanalyzer 2100 Instrument and RNA 6000 Nano Kit (Agilent, Waldbronn, Germany). The average RNA yield was 2 µg. Samples with RIN (RNA Integrity Number) >8.0 were used for further transcriptome analysis.
A ribosome reduction kit (Arraystar Inc, Rockville, MD, USA) and SureSelect Strand Specific mRNA library kit (Agilent, Santa Clara, CA, USA) were used for next generation sequencing (NGS) library preparation according to standard procedures. The cDNA libraries were quantitated using qPCR in a Roche LightCycler 480 with the Kapa Library Quantification Kit for Illumina platforms (Kapa Biosystems, Woburn, MA, USA). Onboard cluster generation and 50 nt paired end RNA sequencing were performed on an Illumina HiSeq2500 device using Rapid Run v2 sequencing chemistry and flow cells as recommended by the manufacturer (Illumina Inc., San Diego, CA, USA). Paired end 50 bp sequencing runs were completed and the data was converted to the FASTQ Sanger format. Trim Galore was used to remove residual adapter sequences from the reads (https://www.bioinformatics.babraham.ac.uk). Sequencing reads were aligned to the human reference genome assembly (hg19) using TopHat. Further analysis was performed according to workflow for Cufflinks version 2.2.0 and higher. Transcript assembly and estimation of the relative abundances were carried out with Cufflinks using the following settings: Quartile normalization method for the libraries, blind dispersion method for replicates, and biased correction using canonical hg19 as reference. Cuffmerge and Cuffquant were then performed, followed by final comparison analysis in Cuffdiff. […] Differentially expressed genes (DGE) were grouped in functional pathways using ingenuity pathway analysis (IPA Spring Release 2017, QIAGEN, Hilde, Germany) on a gene level, using RefSeq annotation.

[3] = tested on: primary fibroblast cell cultures; test: Transcript levels by qPCR; type: cell-based, human; details: 0.1 µg/mL, 48 h, 2^−ΔCt relative to Actb and Tbp (Figure 5)
Method: as §1
RNA was extracted using an RNeasy Mini kit (Qiagen, Cat. No. 74104, Hilden, Germany). RNA quality and concentrations were examined with a NanoDrop 2000 spectrophotometer. cDNA synthesis was performed in a reaction mixture containing 200 ng of RNA, 100 pmoles of oligo dT20, 4 µl of 5× reaction buffer (250 mM Tris-HCl, 375 mM KCl, 15 mM MgCl2, and 50 mM DTT), and 200 units of Maxima Reverse Transcriptase (ThermoScientific Bio. Cat. No. EP0742, Waltham, MA USA), at a final volume of 20 µl. PCR reactions were carried out on a LightCycler LC96 device (Roche, Basel, Switzerland), at a final volume of 10 µl containing 5 µl of FastStart Essential DNA Green Master (Roche, Cat. No. 06402712001, Basel, Switzerland), 1 µl of cDNA, and 0.25 µl each of forward and reverse primer (10 µM). The primer sequences are listed in Supplementary Table S4. The transcript levels were determined using the 2^−ΔCt method relative to Actb and Tbp.

[4] = tested on: T47D breast cancer cells; test: MTT proliferation test; type: cell-based; details: 48 or 72 h, RPMI-1640 with 10 % FBS; Mann Whitney U-test (Figure S11)
Method: (§2) Cancer cell prolifertion assay. Cell proliferation was determined by the MTT method. MTT test measures enzymatic activity, which is a marker of viable cells. Drop in amount of formazan informs that there is less metabolically active cells as compared with control (taken as 100%); however, it might be caused by cell cycle arrest (stopped or slowed proliferation) and/or cell death (which also may happen after prolonged incubation with tested compounds). T47D or MCF-7 breast cancer cells were cultured in RPMI-1640 supplemented with 10 % fetal bovine serum and 1 % penicillin/streptomycin solution. Cells were seeded, at a density of 2 x 10^3 per well, in a 96-well plate and allowed to attach overnight. The medium was replaced with fresh medium supplemented with desired concentrations of each investigated compound for 24, 48 or 72 h. Before the end of treatment, 25 µL of MTT solution (4 mg per ml-^1) were added to each well. After 3 h of incubation, medium was removed, and formazan crystals were dissolved in 100 µL of DMSO. Absorbance was measured at 570 nm (with reference wavelength 660 nm) in a Victor microplate reader. Data were obtained from at least three independent experiments performed in triplicate.

[5] = tested on: MCF-7 breast cancer cells; test: MTT proliferation test; type: cell-based; details: 24, 48 or 72 h, RPMI-1640 with 10 % FBS; Mann Whitney U-test (Figure S12)
Method: as §2

[6] = 48 h vs FBS-deprived medium, IPA disease and function mode

Structure (SMILES): CC(C)[C@H](NC(=O)[C@H](CCCCN)NC(=O)[C@H](CC(=O)O)NC(=O)[C@@H](N)CCCNC(=N)N)C(=O)N[C@@H](Cc1ccc(O)cc1)C(=O)N[C@@H](CCCNC(=N)N)C(=O)O [IM, H-Arg-Asp-Lys-Val-Tyr-Arg-OH] (H-RDKVYR-OH)
- synthesis of IgE [1]: suppress the synthesis
- production of IgM, IgG, and IgA ([1]; following stimulation with pokeweed mitogen): increase the production
- consistency score of the IPA regulatory network ([2]; 48 h, highest consistency score (Figure S10A)): 29.69
- Predicted Direction of Change: Activation of cells [2, 6]: Activation
- Predicted Direction of Change: Binding of neutrophils [2, 6]: Activation
- Predicted Direction of Change: Cell migration of granulocytes [2, 6]: Activation
- Predicted Direction of Change: Cell migration of neutrophils [2, 6]: Activation
- Predicted Direction of Change: Cell movements [2, 6]: Activation
- Predicted Direction of Change: Chemotaxis [2, 6]: Activation
- Predicted Direction of Change: Immune response [2, 6]: Activation
- Predicted Direction of Change: Migration of cells [2, 6]: Activation
- Predicted Direction of Change: Migration of endothelium cells [2, 6]: Activation
- Predicted Direction of Change: Permeability of endothelium cells [2, 6]: Activation
- Predicted Direction of Change: RNA transactivation [2, 6]: Activation
- Predicted Direction of Change: Secretion of lipids [2, 6]: Activation
- Predicted Direction of Change: Synthesis of fatty acids [2, 6]: Activation
- Predicted Direction of Change: Synthesis of nitric oxide [2, 6]: Activation
- transcriptional response of POU5F1 ([3]; fibroblasts from all three donors): very strong induction
- transcriptional response of TET1 ([3]; primary fibroblasts): high activation
- transcriptional response of TET3 ([3]; primary fibroblasts): high activation
- difference in proliferation from control (MTT) [4]: not statistically significant
- difference in proliferation from control (MTT) [5]: not statistically significant

Source: PMC7355430, “Imunofan—RDKVYR Peptide—Stimulates Skin Cell Proliferation and Promotes Tissue Repair” (Molecules, 2020)
